Values of other authors in patent publication US20160136091A1, “Orally Disintegrating Tablet” (SANWA KAGAKU KENKYUSHO CO., LTD., priority 2013, published 2016).

Settings: 20+5° C.

| SMILES | Amount of water required to dissolve 1 g |
| --- | --- |
| OCCN1C[C@H](O)[C@@H](O)[C@H](O)[C@H]1CO [miglitol] | less than 10 mL |
| Cn1c(=O)c2[nH]cnc2n(C)c1=O [theophylline] | less than 1,000 mL |
